Test [1] addresses rat α7-nicotinic acetylcholine receptor (Rattus norvegicus, UniProt Q05941). Type of test: cell-based.
Test [2] has as its target rat α3β4-nicotinic acetylcholine receptor (Rattus norvegicus, UniProt P04757+P12392). It counts as cell-based. The following applies: read-out: IC50, inhibition of (S)-nicotine-induced whole-cell current.
The conditions of test [3]: human, in vivo; cited from earlier work.
Test [4] deals with α7-nicotinic acetylcholine receptor (Rattus norvegicus, UniProt Q05941). Type of test: binding.
Test [5] addresses α4β2-nicotinic acetylcholine receptor (Homo sapiens, UniProt P17787+P43681). The test is described as follows: Acetylcholine-evoked currents in α4β2-nicotinic acetylcholine receptor. It counts as cell-based.
Another test deals with NMDA receptor. It counts as binding, rat.

The structures appear in SMILES notation. “And” between values parts separate entries of the source, which are not always exact repeats. Identical values can stand only once. “Also recorded” adds a separate entry of the source. Like-named read-outs stand apart in the source and are kept apart here. Bounds are passed on as bounds.

Chain of α7-nicotinic acetylcholine receptor (Q05941 23-502): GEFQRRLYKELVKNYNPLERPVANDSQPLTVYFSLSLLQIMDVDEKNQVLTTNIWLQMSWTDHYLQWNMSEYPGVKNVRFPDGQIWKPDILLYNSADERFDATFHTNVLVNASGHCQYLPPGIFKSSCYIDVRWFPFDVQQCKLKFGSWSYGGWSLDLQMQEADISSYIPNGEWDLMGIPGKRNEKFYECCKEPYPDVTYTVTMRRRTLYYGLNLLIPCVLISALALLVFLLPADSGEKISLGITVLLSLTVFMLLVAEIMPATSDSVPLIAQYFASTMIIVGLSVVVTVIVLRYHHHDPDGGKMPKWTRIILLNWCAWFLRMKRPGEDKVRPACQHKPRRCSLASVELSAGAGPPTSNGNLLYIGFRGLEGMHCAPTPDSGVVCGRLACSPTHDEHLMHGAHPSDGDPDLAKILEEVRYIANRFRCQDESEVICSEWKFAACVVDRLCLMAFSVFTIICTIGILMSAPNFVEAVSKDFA
Chain of rat α7-nicotinic acetylcholine receptor (Q05941 23-502): as above
Chain of rat α3β4-nicotinic acetylcholine receptor (P04757 26-499): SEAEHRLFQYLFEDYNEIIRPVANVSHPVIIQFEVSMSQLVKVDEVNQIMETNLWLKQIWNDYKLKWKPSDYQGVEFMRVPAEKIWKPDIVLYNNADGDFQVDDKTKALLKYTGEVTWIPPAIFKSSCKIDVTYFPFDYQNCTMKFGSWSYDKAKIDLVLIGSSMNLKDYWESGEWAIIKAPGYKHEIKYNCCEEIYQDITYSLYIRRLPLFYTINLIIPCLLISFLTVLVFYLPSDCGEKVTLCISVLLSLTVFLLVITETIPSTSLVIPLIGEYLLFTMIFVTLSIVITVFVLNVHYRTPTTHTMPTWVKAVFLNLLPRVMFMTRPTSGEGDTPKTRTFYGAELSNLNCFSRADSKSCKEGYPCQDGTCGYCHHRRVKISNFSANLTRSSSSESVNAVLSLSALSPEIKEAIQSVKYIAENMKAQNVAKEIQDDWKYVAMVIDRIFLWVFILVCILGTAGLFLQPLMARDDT
Chain of rat α3β4-nicotinic acetylcholine receptor (P12392 21-495): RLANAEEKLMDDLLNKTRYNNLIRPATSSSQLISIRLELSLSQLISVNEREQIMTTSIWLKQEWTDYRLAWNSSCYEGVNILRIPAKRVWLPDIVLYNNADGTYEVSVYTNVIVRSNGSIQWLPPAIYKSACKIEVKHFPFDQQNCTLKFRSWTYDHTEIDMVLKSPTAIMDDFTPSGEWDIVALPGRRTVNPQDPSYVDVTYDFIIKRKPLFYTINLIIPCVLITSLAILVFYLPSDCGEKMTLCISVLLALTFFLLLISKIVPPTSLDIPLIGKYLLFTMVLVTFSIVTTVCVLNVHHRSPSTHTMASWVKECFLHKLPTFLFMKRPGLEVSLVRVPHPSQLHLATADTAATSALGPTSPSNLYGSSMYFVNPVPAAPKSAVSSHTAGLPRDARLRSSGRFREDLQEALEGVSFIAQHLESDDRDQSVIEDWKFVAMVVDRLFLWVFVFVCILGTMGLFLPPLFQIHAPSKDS
Chain of α4β2-nicotinic acetylcholine receptor (P43681 29-627 limits assumed): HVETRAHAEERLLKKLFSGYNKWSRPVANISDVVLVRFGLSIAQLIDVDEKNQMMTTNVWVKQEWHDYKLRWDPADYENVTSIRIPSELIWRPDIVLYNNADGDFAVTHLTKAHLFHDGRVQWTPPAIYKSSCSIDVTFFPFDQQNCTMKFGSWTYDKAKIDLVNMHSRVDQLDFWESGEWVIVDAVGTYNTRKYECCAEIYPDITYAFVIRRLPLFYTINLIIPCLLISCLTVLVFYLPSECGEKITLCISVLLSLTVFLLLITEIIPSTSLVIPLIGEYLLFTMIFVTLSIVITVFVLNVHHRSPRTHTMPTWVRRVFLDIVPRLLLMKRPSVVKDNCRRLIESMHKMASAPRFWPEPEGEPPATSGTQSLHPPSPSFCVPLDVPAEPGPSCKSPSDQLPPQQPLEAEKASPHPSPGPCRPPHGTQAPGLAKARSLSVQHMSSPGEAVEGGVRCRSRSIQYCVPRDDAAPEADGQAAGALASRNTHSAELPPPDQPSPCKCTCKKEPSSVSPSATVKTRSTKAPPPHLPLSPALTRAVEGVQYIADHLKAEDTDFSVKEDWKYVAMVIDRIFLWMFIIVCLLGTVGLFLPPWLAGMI
Chain of α4β2-nicotinic acetylcholine receptor (P17787 26-502 limits assumed): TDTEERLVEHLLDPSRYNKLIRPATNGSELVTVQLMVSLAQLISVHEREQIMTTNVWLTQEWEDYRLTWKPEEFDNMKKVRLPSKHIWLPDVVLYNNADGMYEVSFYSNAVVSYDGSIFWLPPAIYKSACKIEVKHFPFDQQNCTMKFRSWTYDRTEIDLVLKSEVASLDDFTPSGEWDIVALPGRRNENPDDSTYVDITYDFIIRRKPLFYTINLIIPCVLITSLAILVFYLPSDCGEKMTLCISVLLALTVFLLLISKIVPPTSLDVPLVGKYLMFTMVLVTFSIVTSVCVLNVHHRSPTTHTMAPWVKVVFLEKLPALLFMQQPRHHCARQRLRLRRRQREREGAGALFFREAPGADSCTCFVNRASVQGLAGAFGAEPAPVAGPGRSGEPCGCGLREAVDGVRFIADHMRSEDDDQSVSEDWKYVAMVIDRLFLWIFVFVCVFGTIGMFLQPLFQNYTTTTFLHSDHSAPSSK

By IC50 is commonly meant the concentration that inhibits the measured activity by half. Consider `CNC1(c2ccccc2Cl)CCCCC1=O` (racemic) [(R,S)-Ketamine, reference compound], for which the “Effect on acetylcholine-induced current” value in test [1] is “inactive; also recorded: no observable effect”. The IC50 in test [2] turned out to be 3.1 µM. For the same compound, in test [3], the “Patients reporting a positive response” value was 41% and the Response rate was 30%.
With `NC1(c2ccccc2Cl)CCC=CC1=O` (racemic) [(R,S)-dehydronorketamine], in test [1], the “Current activation (agonist effect)” value is recorded as “No measurable effect”; the “Hill coefficient nH” value was determined as 0.66 ± 0.05; the “Inhibition of acetylcholine-induced current” value is recorded as ~ 60%; the “Mean current evoked by 280 μM acetylcholine, normalized to acetylcholine alone” value is 0.407 and 0.205. For the same compound, the “Voltage dependence of the inhibitory effect” value in test [1] is “voltage-independent”. Further, the “Inhibition of ACh-induced whole-cell current” value in test [1] (0.03 µM) was found to be 45%. The IC50 in test [1] (read-out: IC50, inhibition of acetylcholine-evoked current) was determined as 0.055 ± 0.006 µM. Further, the IC50 in test [2] was above 200 µM. Further, in test [4], the “Displacement of [3H]-epibatidine” value is “did not competitively displace” and the “Displacement of [125I]-α-bungarotoxin” value is reported as “did not competitively displace”. For the same compound, the “Effect on acetylcholine-evoked currents” value in test [5] is “no effect”.
As for `NC1(c2ccccc2Cl)CCCCC1=O` (racemic) [(R,S)-norketamine], the “Inhibition of acetylcholine-induced current” value in test [1] (100 nM compound, 280 μM acetylcholine) was ~ 45%. The “Mean current evoked by 280 μM acetylcholine, normalized to acetylcholine alone” value in test [1] (100 nM compound, −80 mV, n = 4, fraction of current remaining) was found to be 0.548; in test [1] (1000 nM compound, −80 mV, n = 4, fraction of current remaining), 0.287. Also, in test [2], the IC50 worked out at 9.1 µM.
Broadly, the Ki is the equilibrium dissociation constant of an inhibitor or competing ligand from its target. As to `N[C@@]1(c2ccccc2Cl)CCC[C@@H](O)C1=O` [(2R,6R)-hydroxynorketamine], the “Mean current evoked by 280 μM acetylcholine, normalized to acetylcholine alone” value in test [1] is 0.354 and 0.489. The IC50 in test [2] is above 200 µM. This compound registered a Ki at NMDA receptor above 100 µM.
As for `N[C@]1(c2ccccc2Cl)CCC[C@H](O)C1=O` [(2S,6S)-hydroxynorketamine], the “Mean current evoked by 280 μM acetylcholine, normalized to acetylcholine alone” value in test [1] was 0.461 and 0.361. In addition, the IC50 in test [2] was above 200 µM. The Ki at NMDA receptor was 21 µM and 21.2 µM.
In the case of `N[C@@]1(c2ccccc2Cl)CCC=CC1=O` [(R)-Dedhydronorketamine, (R)-dehydronorketamine], in test [4], the “Displacement of [3H]-epibatidine” value is “not displaced” and the “Displacement of [125I]-α-bungarotoxin” value is “did not displace”. Besides, at NMDA receptor, affinity was put at a Ki of 74.5 µM.
The compound `N[C@@]1(c2ccccc2Cl)CCCCC1=O` [(R)-norKetamine, (R)-norketamine] had a Ki at NMDA receptor of 26.5 µM.
On to `N[C@]1(c2ccccc2Cl)CCC=CC1=O` [(S)-Dehydronorketamine, (S)-dehydronorketamine], for which, in test [4], the “Displacement of [3H]-epibatidine” value is “not displaced” and the “Displacement of [125I]-α-bungarotoxin” value is given as “did not displace”. At NMDA receptor, the Ki was 39 µM.
The compound `N[C@]1(c2ccccc2Cl)CCCCC1=O` [(S)-norKetamine, (S)-norketamine] returned an inhibition constant (Ki) at NMDA receptor of 2.25 ± 0.22 µM.

The values above are taken from article PMC3534778 (European journal of pharmacology, 2012).
